# Patent US10857197B2, “Treatment of HMGB1-mediated inflammation” (The Feinstein Institue for Medical Research, priority 2014, dated 2020)
# T1: HMGB1 (Rattus norvegicus, UniProt P63159)
# T1 sequence (P63159 1-215): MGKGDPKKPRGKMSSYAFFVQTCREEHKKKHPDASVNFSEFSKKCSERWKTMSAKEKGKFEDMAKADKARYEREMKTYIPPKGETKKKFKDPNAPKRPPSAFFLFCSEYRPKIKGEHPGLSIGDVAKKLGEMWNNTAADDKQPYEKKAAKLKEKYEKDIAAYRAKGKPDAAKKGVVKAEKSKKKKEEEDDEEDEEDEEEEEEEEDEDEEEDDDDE
# T2: human MD2 (Homo sapiens, UniProt Q9Y6Y9)
# T2 sequence (Q9Y6Y9 19-160): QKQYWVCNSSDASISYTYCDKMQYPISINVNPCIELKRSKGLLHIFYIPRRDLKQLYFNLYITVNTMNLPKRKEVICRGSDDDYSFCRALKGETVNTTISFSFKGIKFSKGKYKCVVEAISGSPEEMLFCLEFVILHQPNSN
# B1: H2S-modified HMGB1: HMGB1 with cysteine modified by H2S (NaSH) (protein, UniProt P09429 1-215, looked up)
# High mobility group protein B1: MGKGDPKKPRGKMSSYAFFVQTCREEHKKKHPDASVNFSEFSKKCSERWKTMSAKEKGKFEDMAKADKARYEREMKTYIPPKGETKKKFKDPNAPKRPPSAFFLFCSEYRPKIKGEHPGLSIGDVAKKLGEMWNNTAADDKQPYEKKAAKLKEKYEKDIAAYRAKGKPDAAKKGVVKAEKSKKKKEEEEDEEDEEDEEEEEDEEDEDEEEDDDDE
# modifications: cysteine modified by H2S
# B2: fully reduced HMGB1: HMGB1 with all cysteine residues reduced (protein)
# chain: MGKGDPKKPRGKMSSYAFFVQTCREEHKKKHPDASVNFSEFSKKCSERWKTMSAKEKGKFEDMAKADKARYEREMKTYIPPKGETKKKFKDPNAPKRPPSAFFLFCSEYRPKIKGEHPGLSIGDVAKKLGEMWNNTAADDKQPYEKKAAKLKEKYEKDIAAYRAKGKPDAAKKGVVKAEKSKKKKEEEDDEEDEEDEEEEEEEEDEDEEEDDDDE
# B3: sulfonyl HMGB1: HMGB1 with all cysteines terminally oxidized (protein)
# chain: MGKGDPKKPRGKMSSYAFFVQTCREEHKKKHPDASVNFSEFSKKCSERWKTMSAKEKGKFEDMAKADKARYEREMKTYIPPKGETKKKFKDPNAPKRPPSAFFLFCSEYRPKIKGEHPGLSIGDVAKKLGEMWNNTAADDKQPYEKKAAKLKEKYEKDIAAYRAKGKPDAAKKGVVKAEKSKKKKEEEDDEEDEEDEEEEEEEEDEDEEEDDDDE
# What was measured:
# [1] = tested on: LPS-induced systemic cytokine levels; assay: LPS injection in mice, serum TNF and IL-6; type: in vivo; conditions: LPS 8 mg/kg i.p., peptide 500 μg/mouse i.p., 90 minutes
# Experimental: (§1) Cytokine and NF-κB measurements. […] Twenty two cytokines or chemokines were determined simultaneously.
# HMGB1 = biological target: T1, HMGB1; assay: SPR binding of peptide to HMGB1 coated on the chip; conditions: absence of MD2
# [2] = tested on: HMGB1-induced TNF release, primary human macrophages; assay: HMGB1-induced TNF release in primary human macrophages (ELISA); type: cell-based; conditions: HMGB1 1 μg/ml, 16 h
# [3] = tested on: Poly I:C, S100A12, LPS, PGN and CpG DNA-mediated TNF release, primary human macrophages; conditions: 16 h
# [4] = tested on: thioglycollate-elicited peritoneal mouse macrophages; assay: HMGB1-induced cytokine release, mouse peritoneal macrophages (cytokine Ab array); type: cell-based; conditions: HMGB1 1 μg/ml, peptide 50 μg/ml, 16 h
# Experimental: (§2) Cell isolation and culture. […] […]. TNF released was measured by ELISA.
# as §1
# [5] = Cecal ligation and puncture (CLP) sepsis model; type: in vivo; conditions: 50 or 500 μg/mouse i.p. once a day for 4 days from 24 h after CLP
# Source text: Survival was monitored for 2 weeks.
# human TLR4 = human TLR4 (Homo sapiens, UniProt O00206); assay: SPR binding to TLR4 coated on the chip
# [6] = tested on: LPS-stimulated primary human macrophages; assay: LPS-stimulated cytokine/chemokine release, primary human macrophages (cytokine Ab array); type: cell-based; conditions: LPS 2 ng/ml, peptide 50 μg/ml, 16 h
# Experimental: as §1
# [7] = Acetaminophen (APAP) hepatic toxicity model; type: in vivo, mouse
# Experimental: For the acetaminophen (APAP) hepatic toxicity model, three sets of experiments were conducted. In all experiments, mice were routinely fasted overnight and received intraperitoneal (IP) injection of APAP (350 mg/kg for survival studies and 400 mg/kg for serum measurements when mice were euthanized at 24 h post-APAP) as previous described. […] Mice had APAP injection and were euthanized 24 hours later (for serum measurements) or monitored for 2 weeks (for survival studies). […] In survival experiments, mice had APAP injection and received anti-HMGB1 antibodies (5 μg/mouse, IP, once daily for 4 days followed by two additional doses once every other day beginning at 2 hours post-APAP). Irrelevant non-immune IgG was used as controls. For serum measurements, mice subjected to APAP injection and received injection of monoclonal anti-HMGB1 antibody (5 μg/mouse, injected IP at 2 and 7 hours post-APAP) and euthanized at 24 hours post-APAP. The third set of experiments was used to assess the efficacy of P5779 in APAP model in wild type mice. […] Hepatotoxicity was determined by serum levels of glutamate dehydrogenase (GLDH), alanine aminotransferease (ALT) and aspartate aminotransferase (AST) as described previously. Antoine et al., Hepatology 58:777-787 (2013).
# Histological evaluation. […] sections were stained with hematoxylin and eosin.
# [8] = 500 μg/mouse i.p. at surgery, 6 h
# human MD2 = biological target: T2, human MD2; assay: Surface plasmon resonance (BIAcore) binding to human MD2; conditions: SPR
# RAW 264.7 cells = assay: TNF release from RAW 264.7 cells stimulated with HMGB1 isoforms; type: cell-based, murine; conditions: 1 μg/ml, 16 h
# Experimental: as §2, §1
# Sequence of human TLR4 (O00206 24-839): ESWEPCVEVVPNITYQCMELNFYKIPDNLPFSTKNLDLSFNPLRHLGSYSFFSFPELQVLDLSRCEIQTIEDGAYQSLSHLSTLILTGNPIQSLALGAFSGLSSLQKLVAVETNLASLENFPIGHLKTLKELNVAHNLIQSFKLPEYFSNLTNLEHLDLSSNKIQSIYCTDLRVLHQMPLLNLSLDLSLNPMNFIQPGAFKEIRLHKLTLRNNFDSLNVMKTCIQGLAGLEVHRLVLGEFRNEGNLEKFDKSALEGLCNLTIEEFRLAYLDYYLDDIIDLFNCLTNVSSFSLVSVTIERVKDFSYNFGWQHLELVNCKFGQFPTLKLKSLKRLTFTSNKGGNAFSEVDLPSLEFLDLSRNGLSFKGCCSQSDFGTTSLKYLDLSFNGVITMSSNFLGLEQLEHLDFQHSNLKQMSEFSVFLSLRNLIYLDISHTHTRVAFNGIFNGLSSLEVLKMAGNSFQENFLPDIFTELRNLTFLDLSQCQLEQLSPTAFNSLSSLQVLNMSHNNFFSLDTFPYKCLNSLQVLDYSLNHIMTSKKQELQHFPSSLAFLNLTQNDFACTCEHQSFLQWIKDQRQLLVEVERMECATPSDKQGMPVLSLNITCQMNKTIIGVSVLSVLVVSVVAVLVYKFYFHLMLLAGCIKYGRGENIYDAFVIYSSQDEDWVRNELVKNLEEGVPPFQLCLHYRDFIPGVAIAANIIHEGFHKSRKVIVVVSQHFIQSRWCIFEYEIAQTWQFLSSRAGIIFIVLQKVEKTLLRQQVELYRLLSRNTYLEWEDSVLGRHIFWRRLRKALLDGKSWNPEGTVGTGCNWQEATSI
molecule,measurement,setting,value
"N[C@@H](Cc1ccccc1)C(=O)N[C@@H](CO)C(=O)N[C@@H](CO)C(=O)N[C@@H](CCC(=O)O)C(=O)O [P5779, FSSE]","LPS-induced systemic cytokine levels (serum TNF, IL-6)",[1],failed to attenuate
same,binding to HMGB1,HMGB1,failed to bind
same,inhibition of HMGB1-induced TNF release (qualitative),[2],significantly inhibited
same,"inhibition of TNF release mediated by Poly I:C, S100A12, LPS, PGN and CpG DNA",[3],failed to inhibit
same,"HMGB1-induced release of IL-6, IL-12p40/p70, RANTES and MCP-1",[4],significantly reduced
same,survival after CLP vs scrambled peptide,[5],significantly and dose-dependently improved survival rates
same,binding to TLR4,"human TLR4; SPR, absence of MD2",failed to bind
same,LPS-stimulated cytokine/chemokine release in vitro,[6],did not inhibit
same,survival after APAP,"[7]; 500 μg/mouse i.p. once a day for 5 days, 2 weeks",improved survival
same,"APAP-induced elevation of hepatic serum enzymes (AST, ALT), TNF, liver necrosis","[7]; 50 or 500 μg/mouse i.p. at 2 and 7 h post-APAP, 24 h",dose-dependently reduced
same,"hepatic serum enzyme release (AST, ALT) and neutrophil infiltration",[8],significantly blunted
"SFSE (MD2 binding protein) [control peptide, reference compound]",inhibition of HMGB1-induced TNF release (qualitative),[2],abolished the capacity to inhibit HMGB1-induced TNF release
same,MD2-binding capacity (qualitative),human MD2; peptides 100 nM,abolished the MD2-binding capacity
disulfide HMGB1: recombinant HMGB1 with Cys23-Cys45 disulfide bond and reduced Cys106,TNF release induced by HMGB1 isoform,RAW 264.7 cells,induced TNF secretion
same,Kd,"human MD2; read-out: apparent Kd of HMGB1 binding to MD2, MD2 or HMGB1 immobilized on the chip",12 nM
same,HMGB1 binding to TLR4 in the absence of MD2,human TLR4; disulfide HMGB1 100 nM,incapable of directly binding to TLR4
B1,TNF release induced by HMGB1 isoform,RAW 264.7 cells,failed to induce TNF release
B2,TNF release induced by HMGB1 isoform,RAW 264.7 cells,failed to induce TNF release
B3,TNF release induced by HMGB1 isoform,RAW 264.7 cells,failed to induce TNF release
